Test results from paper PMC5618418, “Pharmacokinetics of Jaspine B and Enhancement of Intestinal Absorption of Jaspine B in the Presence of Bile Acid in Rats” (Marine Drugs, 2017).
Read-outs that look alike come from different tables or passages of the source.

Legend:
SK-OV3 = tested on: SK-OV3; parameters: method as in doi:10.5352/JLS.2016.26.12.1392; conditions: SK-OV3 ovarian; cited from earlier work
[1] = Pharmacokinetics after intravenous injection (plasma, bile, urine); type: in vivo, rat; conditions: for half-life: iv, 10 mg/kg
Description: Male SD rats (aged 8–9 weeks, weighing 250–300 g) were obtained from Samtako Bio Korea, Inc. (Osan, Korea). The rats were acclimatized for 1 week in a temperature-controlled room (23 ± 2 °C) with a 12-h illumination cycle. Food and water were given ad libitum. All animal procedures were approved by the Animal Care and Use Committee of the Kyungpook National University (No. 2015-0064). The rats were fasted for at least 12 h before the oral administration of drugs.
The femoral artery, femoral vein, and bile duct were cannulated with polyethylene tubes (PE-50 and PE-10; Jungdo, Seoul, Korea) under light anesthesia with isoflurane.
For intravenous (IV) dosing, Jaspine B was dissolved in a vehicle containing DMSO: PEG400: saline (2:4:4, v/v/v) and was IV-injected via the femoral vein at 10 mg/kg (vehicle volume, 1 mL/kg). Blood samples were collected from the femoral artery at 0, 0.083, 0.167, 0.25, 0.5, 1, 2, 4, 6, 8, and 12 h following the IV administration of Jaspine B. Bile and urine samples were collected every 2 h for a total of 12 h. After centrifugation of blood samples at 13,200 rpm for 10 min, aliquots of 50 μL of plasma, bile, and urine were stored at −80 °C until the analysis of Jaspine B.
(§1) Aliquots (50 μL) of plasma, bile, feces homogenates, and urine samples were added to 250 μL of acetonitrile containing 0.5 ng/mL of berberine (an internal standard). After vortexing for 10 min and centrifugation at 13,200 rpm for 5 min, an aliquot (2 μL) of the supernatant was injected directly into the LC-MS/MS system. For the analysis of plasma concentration, the standard curve range was 25–5000 ng/mL and the concentrations of quality control (QC) samples were 75, 500, and 3000 ng/mL, as described previously. Concentrations of Jaspine B in urine, bile, and feces homogenates were 5–300 ng/mL, 20–5000 ng/mL, and 20–5000 ng/mL, respectively. The concentrations of QC samples were 15, 100, and 300 ng/mL for urine samples and 75, 500, and 3000 ng/mL for bile and feces homogenates.
Pharmacokinetic parameters were determined using a non-compartmental analysis (WinNonlin® 2.0; Pharsight, Mountain View, CA, USA). Maximum plasma concentration (Cmax) and time to reach Cmax (Tmax) values were obtained from plasma concentration-time curves. The area under the plasma concentration–time curve from zero to infinity (AUC) was calculated using the trapezoidal-extrapolation method. For extrapolation, the area from the last data point to infinity was estimated by dividing the […].
Total systemic clearance (CLtotal) was calculated by dividing IV dose by plasma AUC and the apparent volume of distribution at steady-state (Vss) was calculated by multiplying mean residence time (MRT) by CLtotal.

[2] = Cumulative urinary and fecal excretion in metabolic cage; type: in vivo; conditions: rat, IV 10 mg/kg, 72 h; for dose excreted: feces and urine combined, read-out: recovery of unaltered Jaspine B from combined feces and urine
Description: In the experiment using metabolic cages, feces were collected at 12, 24, 48, and 72 h following the IV administration of Jaspine B (10 mg/kg). Aliquots of 50 μL of urine and 10% feces homogenates were stored at −80 °C until the analysis.
as §1

MDA-MB-435 = tested on: MDA-MB-435; parameters: method as in doi:10.5352/JLS.2016.26.12.1392; conditions: MDA-MB-435 melanoma; cited from earlier work
[3] = Stability of QC samples in plasma; parameters: species or system rat
Description: For the analytical validation of Jaspine B in plasma samples, the standard curve range was 25–5000 ng/mL and the concentrations of quality control (QC) samples were 75, 500, and 3000 ng/mL. The recovery of these spiked QC sample were in the range of 88.2–98.1%. Intra- and inter-day precision and accuracy had coefficients of variance of less than 10%. The stability of Jaspine B QC samples after 3 freeze thaw cycles were 83.9–94.4% and the short-term stability of these samples after standing for 6 h at room temperature was 94.3–100.1%.

MDA-MB-231 = tested on: MDA-MB-231; parameters: method as in doi:10.5352/JLS.2016.26.12.1392; conditions: MDA-MB-231 human breast adenocarcinoma; cited from earlier work
[4] = Metabolic stability in rat liver microsomes; type: in vitro ADME; conditions: for percentage remaining: 37 °C
Description: Jaspine B (1 μM) was reconstituted in 100 mM potassium phosphate buffer (pH 7.4) containing 0.25 mg of RLMs and was pre-incubated for 5 min at 37 °C. The reaction was initiated by adding an NADPH-generating system (1.3 mM β-NADP, 3.3 mM glucose-6-phosphate, 3.3 mM MgCl2, and 1.0 unit/mL glucose-6-phosphate dehydrogenase) and then incubated (final volume 100 μL) for 0, 15, 30, and 60 min at 37 °C in a shaking water bath. The reaction was stopped by placing the incubation tubes on ice and adding 200 μL of ice-cold acetonitrile containing 0.5 ng/mL of berberine. After vortexing for 10 min and centrifugation at 13,200 rpm for 5 min, 2 μL of the supernatant was injected directly into the LC-MS/MS system.

[5] = male, Sprague-Dawley, rat plasma, IV 10 mg/kg

SMILES: CCCCCCCCCCCCCC[C@@H]1OC[C@H](N)[C@@H]1O [Jaspine B]
- IC50 (SK-OV3): 4.78 µM
- clearance ([1]; male, Sprague-Dawley, plasma, rat, IV 10 mg/kg, read-out: CLtotal): 98.3 ± 7.7 mL/min/kg
- Vd ([1]; male, Sprague-Dawley, plasma, rat, IV 10 mg/kg, read-out: Vss): 21.2 ± 2.6 L/kg
- half-life ([1]; male, Sprague-Dawley, rat, plasma, rat plasma, distribution phase, read-out: distribution half-life (converted)): 1.4 h
- half-life ([1]; male, Sprague-Dawley, rat, plasma, rat plasma, read-out: T1/2 (terminal half-life) (converted)): 6.7 ± 1.6 h
- AUC(0-inf) [1, 5]: 1700 ± 137 ng·h/mL
- MRT [1, 5]: 3.6 ± 0.5 h
- AUC(0-t) ([1]; male, Sprague-Dawley, rat plasma, IV 10 mg/kg, read-out: AUC12h): 1290 ± 166 ng·h/mL
- Xbile ([1]; rat bile, IV 10 mg/kg, 0-12 h): 2.4 ± 0.8 % of dose
- Xurine ([1]; rat urine, IV 10 mg/kg, 0-12 h): 0.4 ± 0.2 % of dose
- CLbile ([1]; rat, IV 10 mg/kg): 3.1 ± 0.6 mL/min/kg
- CLurine ([1]; rat, IV 10 mg/kg): 0.5 ± 0.3 mL/min/kg
- contribution of CLbile and CLurine to CLtotal ([1]; rat, IV 10 mg/kg): about 4%
- dose excreted ([2]; SD (Sprague-Dawley)): 6.3%
- dose excreted ([2]; Sprague-Dawley (SD)): ~6.3%
- dose recovered from feces ([2]; metabolic cage): 4.7 ± 0.8%
- dose recovered from urine ([2]; metabolic cage): 1.6 ± 0.7%
- IC50 (MDA-MB-435): 2.6 µM
- stability after 3 freeze thaw cycles ([3]; plasma QC samples 75, 500, 3000 ng/mL): 83.9–94.4%
- short-term stability ([3]; plasma QC samples, 6 h at room temperature): 94.3–100.1%
- IC50 (MDA-MB-231): > 100 µM
- percentage remaining ([4]; 1 μM, rat liver microsomes, NADPH-generating system, 30 min): 59.8%
- percentage remaining ([4]; 1 μM, rat liver microsomes, NADPH-generating system, 60 min): 20.4%
- degraded ([4]; 1 h incubation with rat liver microsomes): 80%
- half-life at 1 μM ([4]; pH 7.4, 1 μM, rat liver microsomes, NADPH-generating system, read-out: degradation half-life (T1/2)): 0.4 h
